According to patent US5744452A, “γ-L-glutamyl containing immunomodulator compounds and methods therewith” (Wei; Edward T., priority 1995, dated 1998):

Experiments:
[1] = tested on: patients with generalized surgical infection; assay: Study in patients with generalized surgical infection; format: in vivo, human; conditions: for Adhesion (%) / Blast transformation PHA / Blast transformation spont / CD3 (%) / CD4 (%) / CD4/CD8 / CD8 (%) / CD16 (%) / CD72 (%) / Chemilumin luminol (induced) / Chemilumin luminol (spontaneous) / IL-1 production LPS induced / IL-1 production spontaneous / IgA / IgG / IgM / NBT test induced / NBT test spontaneous / TNF production spontaneous / TNF prpoduction LPS induced: surgical infection; for Alanine aminotransferase / Albumin / Asparagine aminotransferase / Band neutrophils (%) / Bilirubin / Creatinin / Hemoglobin / Mature neutrophils (%) / Monocytes (%) / Plasma protein / Urea: surgical patients
Protocol: Preliminary studies were conducted to characterize the immunomodulatory properties of Bestim in human subjects. The protocol for the human subjects studies were reviewed and approved by a Hospital Committee (Moscow Hospital N-24) and informed consent was obtained from all subjects. All 62 patients received by intramuscular injection 0.1 mg of Bestim dissolved in 1.5 to 2.0 ml of sterile saline, one injection per day for 5 days. Patients participating in the clinical trials were from 2 groups:
The second group consisted of 28 patients with generalized surgical infection. Bestim was given together with standard antibiotic therapy.
Laboratory measurements (data in Table 8 to 10) were performed one day before and compared to values obtained three days after injection of Bestim.

human subjects = assay: Side-effects in all 62 human subjects; format: in vivo; conditions: 0.1 mg i.m. per day for 5 days, 62 patients
Protocol: Preliminary studies were conducted to characterize the immunomodulatory properties of Bestim in human subjects. The protocol for the human subjects studies were reviewed and approved by a Hospital Committee (Moscow Hospital N-24) and informed consent was obtained from all subjects. All 62 patients received by intramuscular injection 0.1 mg of Bestim dissolved in 1.5 to 2.0 ml of sterile saline, one injection per day for 5 days. Patients participating in the clinical trials were from 2 groups: […]

mice [2] = assay: Acute toxicity, single intramuscular dose, mice; format: in vivo
Protocol: To illustrate this point and in preparation for clinical studies, acute and sub-acute toxicity studies were conducted in animals with Bestim according to conditions of good-laboratory practices. Bestim, prepared as a sterile lyophitized powder in ampoules, was dissolved in sterile 0.9% NaCl solution and injected intramuscularly in all experiments.
Acute toxicity: Rodents (mice and rats) and dogs were randomized into groups of equal numbers of males and females. Animals were inspected daily for 14 days after a single dose of Bestim (intramuscular):
Body weight, overall appearance and behavior were evaluated each day and, at the end of two weeks, macroscopic and histopathological examinations of the internal organs (heart, lungs, pleural and peritoneal cavities, muscles, stomach, small and large intestine, liver, spleen, pancreas, kidneys, bladder, thyroid, brain, skin and testes/ovaries) of all animals were conducted.

mice [3] = assay: Pharmacological activity after oral administration to mice; format: in vivo; conditions: for .THETA.-antigen expression % of cells: bone marrow after 30 days; for IL-2 production: splenocytes after 30 days
Protocol: Bestim dissolved in saline was given orally, for 5 days, to groups of 5 mice per dose. After 30 days, the quantity of .THETA.-antigen positive cells in bone marrow and IL-2 production by splenocytes were measured (as described in later in methods).

[4] = Bestim combined with conventional methods
[5] = mice, single 5000.0 mg/kg intramuscular, 14 days

N[C@@H](CCC(=O)N[C@@H](Cc1c[nH]c2ccccc12)C(=O)O)C(=O)O [Bestim, γ-L-glutamyl-L-tryptophan]
clinical improvement [1, 4]: more rapid clinical improvement | duration of the patient's stay in the clinic [1, 4]: decreased the duration of the patient's stay in the clinic | Adhesion (%) ([1]; Bestim After): 41 ± 3% | Blast transformation PHA ([1]; Bestim After): 8935 ± 780 | Blast transformation spont ([1]; Bestim After): 541 ± 48 | CD3 (%) ([1]; Bestim After): 65 ± 5% | CD4 (%) ([1]; Bestim After): 40 ± 3% | CD4/CD8 ([1]; Bestim After): 1.92 ± 0.17 | CD8 (%) ([1]; Bestim After): 22 ± 2% | CD16 (%) ([1]; Bestim After): 10.7 ± 2.1% | CD72 (%) ([1]; Bestim After): 4.0 ± 0.5% | Chemilumin luminol (induced) ([1]; Bestim After): 5063 ± 431 | Chemilumin luminol (spontaneous) ([1]; Bestim After): 1427 ± 252 | IL-1 production LPS induced ([1]; Bestim After): 1601 ± 284 | IL-1 production spontaneous ([1]; Bestim After): 588 ± 201 | IgA ([1]; Bestim After): 2.2 ± 0.1 g/L | IgG ([1]; Bestim After): 9.7 ± 0.9 g/L | IgM ([1]; Bestim After): 1.2 ± 0.1 g/L | NBT test induced ([1]; Bestim After): 144 ± 17 | NBT test spontaneous ([1]; Bestim After): 77 ± 11 | TNF production spontaneous ([1]; Bestim After): 286 ± 27 | TNF prpoduction LPS induced ([1]; Bestim After): 338 ± 81 | Adhesion (%) ([1]; Bestim Before): 32 ± 3% | Blast transformation PHA ([1]; Bestim Before): 4563 ± 524 | Blast transformation spont ([1]; Bestim Before): 435 ± 53 | CD3 (%) ([1]; Bestim Before): 35 ± 5% | CD4 (%) ([1]; Bestim Before): 25 ± 4% | CD4/CD8 ([1]; Bestim Before): 2.09 ± 0.30 | CD8 (%) ([1]; Bestim Before): 15 ± 2% | CD16 (%) ([1]; Bestim Before): 6.2 ± 1.1% | CD72 (%) ([1]; Bestim Before): 4.1 ± 0.6% | Chemilumin luminol (induced) ([1]; Bestim Before): 2943 ± 307 | Chemilumin luminol (spontaneous) ([1]; Bestim Before): 1008 ± 90 | IL-1 production LPS induced ([1]; Bestim Before): 1014 ± 157 | IL-1 production spontaneous ([1]; Bestim Before): 481 ± 166 | IgA ([1]; Bestim Before): 2.4 ± 0.4 g/L | IgG ([1]; Bestim Before): 10.6 ± 1.5 g/L | IgM ([1]; Bestim Before): 1.2 ± 0.2 g/L | NBT test induced ([1]; Bestim Before): 111 ± 15 | NBT test spontaneous ([1]; Bestim Before): 79 ± 12 | TNF production spontaneous ([1]; Bestim Before): 134 ± 55 | TNF prpoduction LPS induced ([1]; Bestim Before): 370 ± 64 | Alanine aminotransferase ([1]; Bestim After): 18 ± 3 IU/L | Albumin ([1]; Bestim After): 40 ± 2 g/L | Asparagine aminotransferase ([1]; Bestim After): 17 ± 3 IU/L | Band neutrophils (%) ([1]; Bestim After): 7 ± 1.6% | Bilirubin ([1]; Bestim After): 7 ± 1 μM/L | Creatinin ([1]; Bestim After): 98 ± 4 μM/L | Hemoglobin ([1]; Bestim After): 101 ± 4 g/L | Mature neutrophils (%) ([1]; Bestim After): 70 ± 1% | Monocytes (%) ([1]; Bestim After): 3.6 ± 0.7% | Plasma protein ([1]; Bestim After): 73 ± 3 g/L | Urea ([1]; Bestim After): 4.0 ± 0.4 mM/L | Alanine aminotransferase ([1]; Bestim Before): 29 ± 7 IU/L | Albumin ([1]; Bestim Before): 38 ± 2 g/L | Asparagine aminotransferase ([1]; Bestim Before): 30 ± 9 IU/L | Band neutrophils (%) ([1]; Bestim Before): 12 ± 2% | Bilirubin ([1]; Bestim Before): 10 ± 1 μM/L | Creatinin ([1]; Bestim Before): 117 ± 7 μM/L | Hemoglobin ([1]; Bestim Before): 98 ± 4 g/L | Mature neutrophils (%) ([1]; Bestim Before): 76 ± 2% | Monocytes (%) ([1]; Bestim Before): 3.2 ± 0.5% | Plasma protein ([1]; Bestim Before): 70 ± 3 g/L | Urea ([1]; Bestim Before): 5.5 ± 0.3 mM/L | side-effects (human subjects): No detectable side-effects | deaths (mice [2]; [5]): No deaths were observed | general appearance, behavior, body weight, hematological, biochemical and physiological indices, macroscopic and histopathological examination of internal organs (mice [2]; [5]): all within normal limits | tested dose relative to expected doses for therapeutic trials (mice [2]; single administration): ~5,000,000 fold | activity after oral administration (mice [3]; animal studies, summary): active after oral administration | .THETA.-antigen expression % of cells (mice [3]; oral 0.1 μg/kg/day for 5 days): 48 ± 1.9 % of cells | IL-2 production (mice [3]; oral 0.1 μg/kg/day for 5 days): 43 ± 11.5 Units/ml | .THETA.-antigen expression % of cells (mice [3]; oral 1 μg/kg/day for 5 days): 48 ± 3.0 % of cells | IL-2 production (mice [3]; oral 1 μg/kg/day for 5 days): 73 ± 16.3 Units/ml | .THETA.-antigen expression % of cells (mice [3]; oral 10 μg/kg/day for 5 days): 36 ± 2.3 % of cells | IL-2 production (mice [3]; oral 10 μg/kg/day for 5 days): 130 ± 11.8 Units/ml
